The values that follow come from EP1339694B1 (F. HOFFMANN-LA ROCHE AG, priority 2000, dated 2002).

T1 sequence (P43119 whole entry): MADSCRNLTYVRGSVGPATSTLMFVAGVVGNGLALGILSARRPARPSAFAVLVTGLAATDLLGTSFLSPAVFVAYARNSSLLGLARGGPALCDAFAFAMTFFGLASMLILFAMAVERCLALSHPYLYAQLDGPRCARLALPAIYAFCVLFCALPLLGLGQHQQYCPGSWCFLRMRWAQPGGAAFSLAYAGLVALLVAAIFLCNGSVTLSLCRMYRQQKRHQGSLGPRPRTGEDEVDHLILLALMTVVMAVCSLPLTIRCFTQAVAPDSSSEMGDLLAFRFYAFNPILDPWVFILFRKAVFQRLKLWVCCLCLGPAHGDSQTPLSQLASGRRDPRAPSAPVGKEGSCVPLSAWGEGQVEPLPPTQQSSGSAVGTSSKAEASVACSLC

The first test has as its target T1, Human Platelet IP Receptor (Homo sapiens, UniProt P43119).
T1 construct: 250 ml Platelet Rich Plasma was transferred into 250 ml centrifuge tubes and spun at 6000 g; from tissue; host or cells: membranes prepared from platelets (platelet rich plasma)
The test can be described thus: In vitro Human Platelet IP Receptor Radioligand Binding Assay.
Conditions: not given
As to the method: In vitro Human Platelet IP Receptor Radioligand Binding Assay
The in vitro Human Platelet IP Receptor Binding Assay measures the strength of a potential drug's binding affinity to its intended target.
The following buffers were prepared using the purest available water.
250 ml Platelet Rich Plasma was transferred into 250 ml centrifuge tubes and spun at 6000 g for 10 min at 20 °C. Pellets were then resuspended in IP lysis buffer and homogenized using a polytron(setting 7, 1x20 sec. burst), brought up to a final volume of 180 ml and centrifuged at 40000 g for 15 min at 4 °C. The pellets were then resuspended in IP assay buffer, protein density determined by BCA method (Pierce) and stored in 2.0 ml vials at -80 °C for subsequent assay use.
To obtain at least 80 % specific binding, 50 µg protein/assay tube was used in a competition experiment. The final radioligand concentration was 1 to 3E-8 M.
The membranes were thawed at room temperature and then diluted in assay buffer to the appropriate concentration. First buffer, drug, radioligand, and lastly, membranes were added to the assay tubes. […] The assay tubes were filtered onto 0.3% PEI pre-treated glass fiber filtermats (GF/ B) using Packard Top Count 96 well cell harvester. The tubes were rinsed three times with ice cold 20mM Tris-HCl, 5mM MgCl2, pH=7.4 (3 x 0.5 ml/sample). Bound radioactivity was determined using liquid scintillation counting.
In turn, `O=C(CCc1ccc(NC2=NCCN2)cc1)c1ccc(N2CCN(C(=O)c3ccco3)CC2)cc1` showed a Ki of 0.468 nM.

`O=C(CCc1ccc(NC2=NCCN2)cc1)c1ccc(N2CCOCC2)cc1` [Example 3, 3-[4-(4,5-Dihydro-1H-imidazol-2-ylamino)phenyl]-1-(4-morpholin-4-ylphenyl)-propan-1-one] had a Ki of 5.25 nM.

The test is the same for the next values; noted with them: human platelet membranes, radioligand competition, 25 °C for 60 min; read-out: Affinity towards the Human Platelet IP Receptor (pKi) (converted).
Take `CCCOC(=O)N1CCN(c2ccc(C(=O)CCc3ccc(NC4=NCCN4)cc3)cc2)CC1` [3-[4-(4,5-dihydro-1H-imidazol-2-ylamino)phenyl]-1-[4-(4-propoxycarbonyl-piperazin-1-yl)phenyl]propan-1-one]: the Ki is 58.9 nM. As for `O=C(CCCc1ccc(NC2=NCCN2)cc1)c1ccc(F)cc1` [Example 8, 4-[4-(4,5-Dihydro-1H-imidazol-2-ylamino)phenyl]-1-(4-fluorophenyl)butan-1-one], the Ki was 3.09 nM. Turning to `O=C(CCc1ccc(NC2=NCCN2)cc1)c1ccc(F)cc1F` [1-(2,4-difluorophenyl)-3-[4-(4,5-dihydro-1H-imidazol-2-ylamino)phenyl]-propan-1-one], the Ki was 56.2 nM. On the same count and under the same terms, the value for `O=C(COc1ccc(NC2=NCCN2)cc1)c1ccc2c(c1)OCCO2` [Example 9, 1-(2,3-Dihydrobenzo[1,4]dioxin-6-yl)-2-[4-(4,5-dihydro-1H-imidazol-2-ylamino)-phenoxy] ethanone] was 44.7 nM.

As for `CN1CCN(c2ccc(C(=O)CCc3ccc(NC4=NCCN4)cc3)cc2)CC1` [3-[4-(4,5-dihydro-1H-imidazol-2-ylamino)phenyl]-1-[4-(4-methylpiperazin-1-yl)-phenyl]propan-1-one], the Ki was 7.08 nM. As for `O=C(CCc1ccc(NC2=NCCN2)cc1)c1ccc(F)cc1` [Example 1, 3-[4-(4,5-Dihydro-1H-imidazol-2-ylamino)phenyl]-1-(4-fluorophenyl)propan-1-one], the Ki is 0.316 nM. The same measure, in the same setting: the value for `O=C(CCc1ccc(NC2=NCCN2)cc1)c1ccc(OCc2ccccc2)cc1` [3-[4-(4,5-dihydro-1H-imidazol-2-ylamino)phenyl]-1-(4-benzyloxyphenyl)-propan-1-one] was 11.2 nM.

`CCNC(=O)N1CCN(c2ccc(C(=O)CCc3ccc(NC4=NCCN4)cc3)cc2)CC1` [3-[4-(4,5-dihydro-1H-imidazol-2-ylamino)phenyl]-1-[4-(4-ethylamino-carbonyl-piperazin-1-yl)phenyl]propan-1-one]: the Ki was 38.9 nM. Same read-out and setting: the value for `O=C(CCc1ccc(NC2=NCCN2)cc1)c1ccc(Cl)c(Cl)c1Cl` [3-[4-(4,5-dihydro-1H-imidazol-2-ylamino)phenyl]-1-(2,3,4-trichlorophenyl)-propan-1-one] was 1.74 nM. Same read-out and setting: the value for `O=C(CCc1ccc(NC2=NCCN2)cc1)c1cccc(F)c1` [3-[4-(4,5-dihydro-1H-imidazol-2-ylamino)phenyl]-1-(3-fluorophenyl)propan-1-one] was 0.676 nM; that for `O=C(CCc1ccc(NC2=NCCN2)cc1)c1ccc(F)c(F)c1` [1-(3,4-difluorophenyl)-3-[4-(4,5-dihydro-1H-imidazol-2-ylamino)phenyl]-propan-1-one] was 22.4 nM; that for `O=C(CCc1ccc(NC2=NCCN2)cc1)c1ccccc1` [3-[4-(4,5-dihydro-1H-imidazol-2-ylamino)phenyl]-1-(phenyl)propan-1-one] was 3.16 nM. The same measure, in the same setting: the value for `O=C(CCc1ccc(NC2=NCCN2)cc1)c1cccc2ccccc12` [3-[4-(4,5-dihydro-1H-imidazol-2-ylamino)phenyl]-1-(naphthalen-1-yl)-propan-1-one] was 1.02 nM; that for `O=C(CCc1ccc(NC2=NCCN2)cc1)c1ccc(Cl)cc1` [1-(4-chlorophenyl)-3-[4-(4,5-dihydro-1H-imidazol-2-ylamino)phenyl]-propan-1-one] was 0.398 nM; that for `CC(C)Oc1ccc(C(=O)CCc2ccc(NC3=NCCN3)cc2)cc1` [3-[4-(4,5-dihydro-1H-imidazol-2-ylamino)phenyl]-1-(4-isopropoxyphenyl)-propan-1-one] was 0.437 nM. Regarding `CC(=O)N1CCN(c2ccc(C(=O)CCc3ccc(NC4=NCCN4)cc3)cc2)CC1` [1-[4-(4-acetylpiperazin-1-yl)phenyl]-3-[4-(4,5-dihydro-1H-imidazol-2-ylamino)-phenyl]propan-1-one], the Ki was 6.31 nM. On the same count and under the same terms, the value for `O=C(CCc1ccc(NC2=NCCN2)cc1)c1ccc2ccccc2c1` [3-[4-(4,5-dihydro-1H-imidazol-2-ylamino)phenyl]-1-(naphthalen-2-yl)propan-1-one] was 4.9 nM; that for `COc1ccc(C(=O)CCc2ccc(NC3=NCCN3)cc2)c(F)c1` [3-[4-(4,5-dihydro-1H-imidazol-2-ylamino)phenyl]-1-(2-fluoro-4-methoxy-phenyl)-propan-1-one] was 1 nM; that for `O=C(CCc1ccc(NC2=NCCN2)cc1)c1ccc(Oc2ccccc2)cc1` was 20 nM.

On to `O=C(CCc1ccc(NC2=NCCN2)cc1)c1ccc(N2CCOCC2)cc1F` [Example 4, 3-[4-(4,5-Dihydro-1H-imidazol-2-ylamino)phenyl]-1-(2-fluoro-4-morpholin-4-yl-phenyl)propan-1-one], for which the Ki is 18.2 nM. Still for that read-out and setting: the value for `COc1ccc(C(=O)COc2ccc(NC3=NCCN3)cc2)cc1` [Example 10, 2-[4-(4,5-Dihydro-1H-imidazol-2-ylamino)phenoxy]-1-(4-methoxyphenyl)ethanone] was 2.75 nM. Take `O=C(CCc1ccc(NC2=NCCN2)cc1)c1ccc(Cl)cc1Cl` [1-(2,4-dichlorophenyl)-3-[4-(4,5-dihydro-1H-imidazol-2-ylamino)phenyl]-propan-1-one]: the Ki was 0.282 nM. Take `O=C(CCc1ccc(NC2=NCCN2)cc1)c1cc(F)cc(F)c1` [1-(3,5-difluorophenyl)-3-[4-(4,5-dihydro-1H-imidazol-2-ylamino)phenyl]-propan-1-one]: the Ki was 0.741 nM. The same measure, in the same setting: the value for `CCOC(=O)N1CCN(c2ccc(C(=O)CCc3ccc(NC4=NCCN4)cc3)cc2)CC1` [Example 5, 3-[4-(4,5-Dihydro-1H-imidazol-2-ylamino)phenyl]-1-[4-(4-ethoxycarbonyl-piperazin-1-yl)-phenyl]propan-1-one] was 9.33 nM; that for `CS(=O)(=O)N1CCN(c2ccc(C(=O)CCc3ccc(NC4=NCCN4)cc3)cc2)CC1` [Example 6, 3-[4-(4,5-Dihydro-1H-imidazol-2-ylamino)phenyl]-1-[4-(4-methanesulfonyl-piperazin-1-yl)phenyl]propan-1-one] was 28.2 nM; that for `O=C(CCc1ccc(NC2=NCCN2)cc1)c1ccccc1F` [3-[4-(4,5-dihydro-1H-imidazol-2-ylamino)phenyl]-1-(2-fluorophenyl)propan-1-one] was 0.447 nM. With `CCOC(=O)N1CCN(c2ccc(C(=O)CCc3ccc(NC4=NCCN4)cc3)c(F)c2)CC1` [3-[4-(4,5-dihydro-1H-imidazol-2-ylamino)phenyl]-1-[4-(4-ethoxycarbonyl-piperazin-1-yl)-2-fluorophenyl]propan-1-one], the Ki is 67.6 nM.

`O=C(CCc1ccc(NC2=NCCN2)cc1)c1cc(F)c(Cl)cc1Cl` [1-(4,6-dichloro-3-fluorophenyl)-3-[4-(4,5-dihydro-1H-imidazol-2-ylamino)-phenyl]propan-1-one]: the Ki was 0.708 nM.

Take `COc1ccc2cc(C(=O)CCc3ccc(NC4=NCCN4)cc3)ccc2c1` [3-[4-(4,5-dihydro-1H-imidazol-2-ylamino)phenyl]-1-(6-methoxynaphthalen-2-yl)-propan-1-one]: the Ki is 0.427 nM. Regarding `O=C(CCc1ccc(NC2=NCCN2)cc1)c1ccc(Cl)c(Cl)c1` [1-(3,4-dichlorophenyl)-3-[4-(4,5-dihydro-1H-imidazol-2-ylamino)phenyl]-propan-1-one], the Ki was 9.55 nM. The same measure, in the same setting: the value for `O=C(CCc1ccc(NC2=NCCN2)cc1)c1ccc(-c2ccccc2)cc1` [3-[4-(4,5-dihydro-1H-imidazol-2-ylamino)phenyl]-1-(4-phenylphenyl)-propan-1-one] was 1.48 nM.
